This note sets out measurements from patent publication US12123028B2, “Viral inactivation methods for continuous manufacturing of antibodies” (Bayer HealthCare LLC, priority 2018, dated 2024).

The assay concerns X-MuLV. In words: Dual X-MuLV inactivation by low pH and detergent in mAb protein A eluate, remaining infectivity by TCID50 assay on PG-4 cells. Particulars: for LRF ± 95% CL: 16° C. The format is cell-based, Xenotropic Murine Leukemia Virus. The protocol: […] The pH adjusted eluates were then filtered by a 0.22 um filter. Various volumes of 5% detergent stock solution were then added to the filtered protein A eluates. The low pH protein A eluates containing Mega-10, Tween 80 or Tween 20 were pre-incubated at a 16° C. water bath prior to spiking with X-MuLV at a 1:20 ratio. After a thorough mixing, an aliquot of sample was removed immediately and neutralized with 1 M Tris buffer to stop low pH viral inactivation, then immediately quenched with diluent at 1:12 for Mega-10 or at 1:100 for Tween 20 and Tween 80 to stop viral inactivation by the detergent. The collected sample was designated as a time-zero reference. The remaining spiked eluate was returned to the water bath and the samples were collected at indicated times to evaluate the viral inactivation kinetics. The remaining X-MuLV infectivity in the samples post-inactivation treatment was determined by a TCID50 assay that is an endpoint dilution assay to quantify the amount of virus required to produce a cytopathic effect in 50% of inoculated tissue culture cells. Virus titers were estimated using the Spearman-Karber method and reported as TCID50/mL with a calculated 95% confidence interval (CI). Briefly, a sufficient number of 96-well plates with PG-4 (feline S^+L^−, ATCC#CRL-2032) cells were prepared the day before starting the viral inactivation experiments and incubated overnight in a 37° C. humidified CO2 incubator. A set of ten 3.2 fold dilution of the diluted positive control (1:100) and viral inactivated samples were prepared in a dilution block. Each set of the 11 serial dilutions of the samples were inoculated correspondingly onto wells (100 μL per well) of the first 11 columns in a 96-well plate that had been pre-seeded with PG-4 cells. The 12th column in the same plate was inoculated with the corresponding diluent to serve as non-virus negative control. The positive control was prepared by spiking the filtered neutralized protein A eluate with X-MuLV at a 1:20 ratio. The inoculated plates were then incubated in a 37° C. humidified CO2 incubator for approximate 2 hours. A volume of 100 uL of 2× assay medium (92% McCoy's 5A medium, 4% FBS, 2% Penicillin/Streptomycin, 2% L-Glutamine) was added to each well of the plates at the end of incubation. The plates were then returned to the same incubator, and continued incubation for 6 days. Each well of the plates were scored under a microscope for the presence of cytopathic effect (CPE) and the results were recorded in a scoring sheet. Virus titers were then estimated using the Spearman-Karber method and reported as TCID50/mL with a calculated 95% confidence interval (CI).

Turning to `CCCCCCCCCC(=O)N(C)C[C@H](O)[C@@H](O)[C@H](O)[C@H](O)CO` [Mega-10, N-Methylglucamide], the “LRF ± 95% CL” value (dual treatment pH 3.91 + 0.10% Mega 10, mAb1 protein A eluate, 0 minutes) worked out at 3.74 ± 0.33; the “LRF ± 95% CL” value (dual treatment pH 3.91 + 0.10% Mega 10, mAb1 protein A eluate, 2.5 minutes) was ≥ 5.40±0.21; the “LRF ± 95% CL” value (dual treatment pH 3.91 + 0.10% Mega 10, mAb1 protein A eluate, 2.5 minutes, listed as Mega 10) is ≥5.40 ± 0.21; the “LRF ± 95% CL” value (dual treatment pH 3.91 + 0.10% Mega 10, mAb1 protein A eluate, 5 minutes) is ≥5.40 ± 0.21; the “LRF ± 95% CL” value (dual treatment pH 3.91 + 0.10% Mega 10, mAb1 protein A eluate, 10 minutes) is ≥5.40 ± 0.21; the “LRF ± 95% CL” value (dual treatment pH 3.91 + 0.10% Mega 10, mAb1 protein A eluate, 30 minutes) was ≥5.40 ± 0.21. The “LRF ± 95% CL” value runs as follows: (dual treatment pH 4.05 + 0.15% Mega 10, mAb2 protein A eluate, 0 minutes) 1.62 ± 0.27; (dual treatment pH 4.05 + 0.15% Mega 10, mAb2 protein A eluate, 2.5 minutes) 3.96 ± 0.31; (dual treatment pH 4.05 + 0.15% Mega 10, mAb2 protein A eluate, 5 minutes) 5.50±0.83; (dual treatment pH 4.05 + 0.15% Mega 10, mAb2 protein A eluate, 5 minutes, listed as Mega 10) 5.50 ± 0.83; (dual treatment pH 4.05 + 0.15% Mega 10, mAb2 protein A eluate, 10 minutes) ≥5.81 ± 0.18^; (dual treatment pH 4.05 + 0.15% Mega 10, mAb2 protein A eluate, 30 minutes) ≥5.81 ± 0.18^. The “time to inactivate X-MuLV to the level below the detection limit” value (dual treatment: mAb1 protein A eluate pH 3.91 with 0.1% Mega-10, 16° C. (240 minutes by pH 3.91 alone at 18° C.)) turned out to be 2.5 min. In addition, for the setting “dual treatment: mAb2 protein A eluate pH 4.05 with 0.15% Mega-10, 16° C. (120 minutes by pH 4.0 alone at 18° C.)”, the “time needed for inactivating X-MuLV to the level below the detection limit” value amounted to 10 min.
